Measurements from patent US20150368242A1, “NOVEL TETRAHYDROPYRIDOPYRIMIDINONE DERIVATIVE” (Ajinomoto Co., Inc., priority 2013, published 2015).
pIC50: −log10 of the molar value. Counter-ions that a name gives are not always drawn. Like-named read-outs stand apart in the source and are kept apart here.

Molecular target: T1, recombinant human MGAT2 enzyme (Homo sapiens, UniProt Q3SYC2)
T1 construct: made in house; host or cells: CHO-K1 (Jump-In CHO-K1 Kit, Life Technologies); microsomal fraction used as the enzyme solution
Test: Test for human MGAT2 activity inhibitory action (14C-oleoyl CoA, recombinant enzyme microsomes)
Type: biochemical
Set-up: key to Potency relative to Comparative Example 1 (higher = more potent): % inhibition = {1−(C−B)/(A−B)}×100, B = 10 μM Comparative Example 1
Details: for pIC50: read-out: IC50
Experimental: The human MGAT2 gene described in Am. J. Physiol. Endocrinol. Metab. 285: E927-E937, 2003 was expressed using Jump-In™ CHO-K1 Kit (Life technologies) as described in the attached manual. The cells were suspended in a buffer containing Tris-hydrochloric acid (pH 7.4) at a final concentration of 1 mM, 1 mM ethylenediaminetetraacetic acid, 1 mM dithiothreitol, 250 mM sucrose, and complete protease inhibitor cocktail (Roche applied Science), and then disrupted using a Teflon homogenizer (AS ONE Corporation), followed by centrifugation at 130 g for 10 minutes. The supernatant was further centrifuged at 100,000 g for 1 hour to obtain a pellet as microsomes containing the recombinant enzyme, and a solution obtained by suspending this pellet at a protein concentration of about 800 to 1900 μg/ml was used as an MGAT recombinant enzyme solution.
To a buffer containing 50 mM Tris-hydrochloric acid (pH 7.4), 6 mM magnesium chloride, and 2 mg/mL bovine serum albumin, a test compound was added, and the final concentration of dimethyl sulfoxide was adjusted to 0.3%. Moreover, 2-monooleoyl glycerol, oleoyl CoA, 1-^14C-oleoyl CoA (Perkin Elmer), and orlistat (SIGMA) were added at final concentrations of 50 μM, 50 μM, 2.2 μM, and 8.3 μM, respectively, followed by incubation at 37° C. for 10 minutes. After 10 minutes, the recombinant human MGAT2 enzyme solution was added at a final concentration of 0.67 μg/mL, and the reaction was started, with the amount of the reaction solution being 150 μl. The reaction was carried out at 37° C. for 30 minutes.
After 30 minutes, the reaction was stopped by adding 300 μl of isopropanol:heptane:water=(80:20:2) to the reaction liquid. Further, 200 μl of heptane and 100 μl of water were added, followed by stirring. Then, 100 μl of the upper layer was transferred to a 96-well plate (Corning), and mixed with 100 μl of liquid scintillator (LumaSafe Plus, Lumac). Then, the ^14C count was quantitatively determined using TopCount NXT™ microplate scintillation luminescence counter (Perkin Elmer).
The ^14C count in a case where no test compound was added was defined as A, the ^14C count in a case where 10 μM of the compound (Comparative Example 1) of Example No. 8 of WO2008/038768 was added was defined as B, and the ^14C count in the case where the test compound was added was taken as C. For this case, {1−(C−B)/(A−B)}×100(%) was calculated as the human MGAT2 activity inhibition ratio of the test compound (shown in the column named vs Comp. Ex. 1 in the following Table). A greater value of the “vs Comparative Example 1” means that the MGAT2 activity inhibitory action of the compound of Example was higher as compared to the MGAT2 activity inhibitory action of the compound of Comparative Example 1 (i.e., the human MGAT2 activity inhibition ratio was higher). […] Since this evaluation test was conducted for two separate groups, the test results of the two groups are shown separately in Table (First Test) and Table 4 (Second Test).
Next, the compounds of Examples 25 to 60 of the present invention were also investigated for their pharmacological action by using the same method as in Examples 1 to 24. […] Note that, a comparative evaluation test against the compound of Comparative Example 1 was conducted for each of the compounds of Examples (in every measurement of the inhibitory activity of the compounds of Examples 25 to 60, the inhibitory activity of the compound of Comparative Example 1 was measured). The 50% inhibition concentrations of Comparative Example 1 in the measurement of the inhibitory activities of the compounds of Examples 25 to 60 were shown in Table 5 as “IC50 (nM) of Comparative Example 1.”

[1] = Table 5, Examples 25 to 60, same method
[2] = Table 5, relative to Comparative Example 1 measured in the same run
[3] = Second Test (Table 4), relative to Comparative Example 1

T1 sequence (Q3SYC2 whole entry): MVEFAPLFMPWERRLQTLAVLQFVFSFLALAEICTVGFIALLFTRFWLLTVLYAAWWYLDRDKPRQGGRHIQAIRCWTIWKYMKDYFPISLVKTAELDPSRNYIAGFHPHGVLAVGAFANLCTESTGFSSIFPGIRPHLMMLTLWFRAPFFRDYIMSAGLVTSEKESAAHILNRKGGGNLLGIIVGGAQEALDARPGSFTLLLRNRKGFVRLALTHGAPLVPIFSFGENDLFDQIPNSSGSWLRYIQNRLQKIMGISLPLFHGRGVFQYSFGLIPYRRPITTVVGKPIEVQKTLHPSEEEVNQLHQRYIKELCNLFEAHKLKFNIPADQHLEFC

Row | pIC50 [1] | Potency relative to Comparative Example 1 (higher = more potent) [2] | pIC50 (Second Test (Table 4)) | Potency relative to Comparative Example 1 (higher = more potent) [3] | Structure (SMILES)
1 | – | – | 8.80 | 193 | O=C(CCNCCc1c[nH]c2ccccc12)N1CCc2nc(SC3CCC3)n(-c3ccccc3)c(=O)c2C1 [Example 23, 2-cyclobutylsulfanyl-6-[3-[2-(1H-indol-3-yl)ethylamino]propanoyl]-3-phenyl-7,8-dihydro-5H-pyrido[4,3-d]pyrimidin-4-one trifluoroacetate)]
2 | – | – | 8.74 | 173 | O=C(CCNCc1ccsc1)N1CCc2nc(SC3CCC3)n(-c3ccccc3)c(=O)c2C1 [Example 16, 2-cyclobutylsulfanyl-3-phenyl-6-[3-(3-thienylmeethylamino)propanoyl]-7,8-dihydro-5H-pyrido[4,3-d]pyrimidin-4-one trifluoroacetate]
3 | – | – | 8.92 | 246 | O=C(CCNCc1cc2ccccc2[nH]1)N1CCc2nc(SC3CCC3)n(-c3ccccc3)c(=O)c2C1 [Example 21, 2-cyclobutylsulfanyl-6-[3-(1H-indol-2-ylmethylamino)propanoyl]-3-phenyl-7,8-dihydro-5H-pyrido[4,3-d]pyrimidin-4-one trifluoroacetate]
4 | 8.80 | 130 | – | – | CN(C)c1ccc(CNCCC(=O)N2CCc3nc(SC4CCC4)n(-c4ccccc4)c(=O)c3C2)cc1 [Example 31, 2-cyclobutylsulfanyl-6-[3-[(4-dimethylaminophenyl)methylamino]propanoyl]-3-phenyl-7,8-dihydro-5H-pyrido[4,3-d]pyrimidin-4-one trifluoroacetate]
5 | – | – | 8.68 | 148 | COc1ccccc1CNCCC(=O)N1CCc2nc(SC3CCC3)n(-c3ccccc3)c(=O)c2C1 [Example 17, 2-cyclobutylsulfanyl-6-[3-[(2-methoxyphenyl)methylamino]propanoyl]-3-phenyl-7,8-dihydro-5H-pyrido[4,3-d]pyrimidin-4-one trifluoroacetate]

Further lines, the compound ahead of its results:

Row | Structure (SMILES) | pIC50 [1] | Potency relative to Comparative Example 1 (higher = more potent) [2] | pIC50 (Second Test (Table 4)) | Potency relative to Comparative Example 1 (higher = more potent) [3]
6 | O=C(CCNCCCCCOc1ccc(C(F)(F)F)cc1)N1CCc2nc(SC3CCC3)n(-c3ccccc3)c(=O)c2C1 [Example 33, 2-cyclobutylsulfanyl-3-phenyl-6-[3-[5-[4-(trifluoromethyl)phenoxy]pentylamino]propanoyl]-7,8-dihydro-5H-pyrido[4,3-d]pyrimidin-4-one trifluoroacetate] | 9.10 | 228 | – | –
7 | O=C(CNCCCCCNc1ccc(C(F)(F)F)cc1)N1CCc2nc(SC3CCC3)n(-c3ccccc3)c(=O)c2C1 [Example 55, 2-cyclobutylsulfanyl-3-phenyl-6-[2-[5-[4-(trifluoromethyl)anilino]pentylamino]acetyl]-7,8-dihydro-5H-pyrido[4,3-d]pyrimidin-4-one trifluoroacetate] | > 9.00 | >207 | – | –
8 | O=C(CNCCCCOc1ccc(F)cc1)N1CCc2nc(SC3CCC3)n(-c3ccccc3)c(=O)c2C1 [Example 52, 2-cyclobutylsulfanyl-6-[2-[4-(4-fluorophenoxy)butylamino]acetyl]-3-phenyl-7,8-dihydro-5H-pyrido[4,3-d]pyrimidin-4-one trifluoroacetate] | 8.77 | 158 | – | –
9 | O=C(CCNCC1CCCC(C(F)(F)F)C1)N1CCc2nc(SC3CCC3)n(-c3ccccc3)c(=O)c2C1 (centres unmarked) [Example 39, 2-cyclobutylsulfanyl-3-phenyl-6-[3-[[3-(trifluoromethyl)cyclohexyl]methylamino]propanoyl]-7,8-dihydro-5H-pyrido[4,3-d]pyrimidin-4-one trifluoroacetate] | 9.40 | 320 | – | –
10 | O=C(CCNCc1ccccc1)N1CCc2nc(SC3CCC3)n(Cc3ccco3)c(=O)c2C1 [Example 14, 6-[3-(benzylamino)propanoyl]-2-cyclobutylsulfanyl-3-(2-furylmethyl)-7,8-dihydro-5H-pyrido[4,3-d]pyrimidin-4-one trifluoroacetate] | – | – | 8.33 | 65
